Measured values as given in US20020068271A1, “Methods for identifying agents capable of modulating protein kinase C theta (PKC0) activity” (priority 1999, published 2002).
“Also recorded” adds a separate entry of the source. Residues, ends and D or L forms follow the SMILES beside them. *: point of attachment. Cbz = O=C(OCc1ccccc1)*

Assays:
PKCθ-A/E-induced NF-κB = test: NF-κB-Luc reporter induced by constitutively active PKCθ-A/E in Jurkat cells; format: cell-based, human; settings: cultured 16 hr, MG132 0, 5, 10, 20 μM (FIG. 5a)
Protocol: (§1) Jurkat cells were transfected with an empty vector (−) or constitutively active PKCθ (10 μg) together with NF-κB-Luc (FIG. 5a) CD28RE/AP-1-Luc (FIG. 5b), or AP-1-Luc (FIG. 5c) reporter constructs (5 μg each). The cells were cultured for 16 hr with the indicated concentrations of the […] MG132 (0, 5, 10, 20 μM), lysed, and luciferase activity was quantified. FIG. 5d: Jurkat cells were transfected with wild type IKKα (5 μg) or IKKβ (2 μg) together with an empty vector (0) or increasing amounts of constitutively active PKCθ. Twenty-four hr later, the cells were stimulated with anti-CD3/CD28 antibodies or with TNFα. Immunoprecipitated IKKα or IKKβ were subjected to an in vitro kinase assay. Phosphorylated GST-IκBα/1-62 was detected by autoradiography (top panels). […] After 24 hr, cells were lysed and normalized luciferase activity was determined. FIG. 5f: The expression level of the transfected IKKs or PKCθ was assessed by Western blotting using c-Myc-(IKKα), Flag-(IKKβ), or PKCθ-specific antibodies.
(§2) Cell Culture, Transfection, and Reporter Assays. […] Transfected Jurkat cells were harvested after 24 hr, washed twice with PBS, lysed, and luciferase or β-galactosidase activities were determined. The results were expressed as arbitrary luciferase units normalized to β-galactosidase activity in the same cells. […]

[1] = system: PKCθ-A/E-induced CD28RE/AP-1; test: CD28RE/AP-1-Luc reporter induced by constitutively active PKCθ-A/E in Jurkat cells; format: cell-based, human; settings: cultured 16 hr, MG132 0, 5, 10, 20 μM (FIG. 5b)
Protocol: as §1, §2

[2] = system: CD28RE/AP-1 element of the IL-2 promoter; test: CD28RE/AP-1-Luc reporter assay, anti-CD3/CD28-stimulated Jurkat T cells; format: cell-based; settings: Homo sapiens, read-out: inhibition of anti-CD3/CD28-stimulated activity of CD28RE/AP-1
Protocol: (§3) FIG. 4a: Jurkat T cells were cotransfected with CD28RE/AP-1-Luc (10 μg) and β-galactosidase plasmid (2 μg) reporters. Twenty hr later, cells were stimulated for 10 min with CD3- plus CD28-specific antibodies, in the presence or absence of rottlerin (Rott; 30 μM) or Gö6976 (Gö; 0.5 μM). Luciferase activity in cell lysates was determined. FIG. 4b Jurkat cells were incubated (15 min at 37° C.) in the absence or presence of rottlerin or Gö6976, and then stimulated with anti-CD3/CD28 antibodies or with TNFα (10 ng/ml) for the indicated times. Nuclear and cytoplasmic extracts were prepared, and protein from each fraction (5 μg) was analyzed by Western blotting with an anti-RelA antibody. FIG. 4c: Wild-type PKCθ-transfected Jurkat T cells were stimulated as in (a). Cell lysates were immunoprecipitated (IP) with normal rabbit serum (NRS) or with an anti-PKCθ antibody, and the in vitro enzymatic activity of PKCθ was measured in the presence or absence of rottlerin or Gö6976 (top panel). The membrane was immunoblotted with a PKCθ-specific antibody (bottom panel).
Cell Culture, Transfection, and Reporter Assays. […] Transfected Jurkat cells were harvested after 24 hr, washed twice with PBS, lysed, and luciferase or β-galactosidase activities were determined. The results were expressed as arbitrary luciferase units normalized to β-galactosidase activity in the same cells.

[3] = system: NF-κB RelA (p65) nuclear translocation; test: Nuclear translocation of RelA (p65) after anti-CD3/CD28 stimulation, Western blot of nuclear/cytoplasmic extracts; format: cell-based, human; settings: Jurkat cells preincubated 15 min at 37° C., anti-CD3/CD28 stimulation (FIG. 4b)
Protocol: as §3
(§4) Subcellular Fractionation. To determine PKCθ redistribution, cells were fractionated into cytosolic or membrane fractions as described by Meller (1996) Mol. Cell. Biol. 16:5782-5791; and, SDS-PAGE-resolved proteins were immunoblotted with an HRP-conjugated anti-PKCθ monoclonal antibody (Transduction Laboratories). […]

TNFα-induced NF-κB = test: NF-κB activity induced by TNFα in Jurkat cells; format: cell-based, human; settings: TNFα 10 ng/ml (FIG. 4b)
Protocol: as §3, §4

T cells = test: Fas-mediated T cell apoptosis; format: cell-based
Text: PKCθ mediates a selective T cell survival signal via phosphorylation of BAD, a Bcl-2 family member. PKC-activating phorbol esters protect various cell types, including T cells, from apoptosis induced by the interaction of Fas with its ligand. However, before the instant invention, the mechanism of this protective effect as well as the identity of the PKC isoform(s) involved in this process were poorly understood. Studies analyzed the role of PKCθ selectively expressed in T lymphocytes in protecting T cells from Fas-mediated apoptosis. […] These events preceded the onset of cell apoptosis. […] Thus, the invention provides methods for identifying inhibitors of PKCθ activity by determining the ability of a test agent to inhibit PKCθ selective protection of T cells from Fas-mediated apoptosis.

BAD (Ser-136, Ser-112) = test: Phosphorylation of BAD induced by Fas or combined CD3/CD28 ligation; format: cell-based
Text: Thus, the invention provides methods for identifying inhibitors of PKCθ activity by determining the ability of a test agent to inhibit BAD phosphorylation by PKCθ or a BAD activity.

PKCθ [4] = target: T1, PKCθ (Homo sapiens, UniProt Q04759); settings: in vitro and in intact T cells; cited from earlier work
PKCθ [5] = target: T1, PKCθ; test: In vitro kinase assay of immunoprecipitated PKCθ (MBP substrate); format: biochemical; parameters: expressed in transfected cells; host or cells: Jurkat (E6.1) human leukemic T cells; settings: immunoprecipitated PKCθ from wild-type PKCθ-transfected Jurkat T cells, inhibitor added to kinase reaction (FIG. 4c)
Protocol: as §3
Kinase Assays. […] ATP incorporation was determined using a STORM 860™ PhosphorImager (Molecular Dynamics). […]

T1 sequence (Q04759 whole entry): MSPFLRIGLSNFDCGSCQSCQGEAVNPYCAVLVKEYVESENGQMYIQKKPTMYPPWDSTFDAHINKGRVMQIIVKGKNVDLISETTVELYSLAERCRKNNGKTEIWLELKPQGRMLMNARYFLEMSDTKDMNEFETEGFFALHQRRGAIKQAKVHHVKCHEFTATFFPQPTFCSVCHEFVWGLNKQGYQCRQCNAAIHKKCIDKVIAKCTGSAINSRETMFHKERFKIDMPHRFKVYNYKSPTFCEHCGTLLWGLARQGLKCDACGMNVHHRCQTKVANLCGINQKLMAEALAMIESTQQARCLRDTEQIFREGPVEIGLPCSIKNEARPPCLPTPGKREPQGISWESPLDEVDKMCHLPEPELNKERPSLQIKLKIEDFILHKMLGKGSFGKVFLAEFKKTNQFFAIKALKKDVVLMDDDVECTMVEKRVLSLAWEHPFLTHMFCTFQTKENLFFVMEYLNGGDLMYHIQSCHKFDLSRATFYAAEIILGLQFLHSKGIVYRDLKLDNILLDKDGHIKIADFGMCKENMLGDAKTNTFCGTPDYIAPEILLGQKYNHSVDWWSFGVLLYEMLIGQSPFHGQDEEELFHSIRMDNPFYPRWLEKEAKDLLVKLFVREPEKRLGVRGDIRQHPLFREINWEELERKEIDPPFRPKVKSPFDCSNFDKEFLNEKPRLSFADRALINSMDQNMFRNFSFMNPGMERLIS

| Compound | PKCθ-A/E-induced activation of NF-κB (PKCθ-A/E-induced NF-κB) | PKCθ-A/E-induced activation of CD28RE/AP-1 [1] | inhibition at 30 µM [2] [%] | receptor-stimulated nuclear translocation of RelA (p65) [3] | inhibition of NF-κB activity induced by TNFα (TNFα-induced NF-κB) | synergy with an anti-Fas antibody to induce rapid T cell apoptosis (T cells) | phosphorylation of BAD on Ser-136 (and to a lesser extent on Ser-112) (BAD (Ser-136, Ser-112)) | inhibition of PKCθ function (PKCθ [4]) | inhibition of CD3/CD28-induced PKCθ activity (PKCθ [5]) |
| --- | --- | --- | --- | --- | --- | --- | --- | --- | --- |
| CC(C)C[C@@H](C=O)NC(=O)[C@H](CC(C)C)NC(=O)[C@H](CC(C)C)NC(=O)OCc1ccccc1 [MG132] (Cbz-Leu-Leu-Leu-aldehyde) | blocked in a dose-dependent manner | blocked in a dose-dependent manner; also recorded: inhibited |  |  |  |  |  |  |  |
| CC(=O)c1c(O)c(C)c(O)c(Cc2c(O)c3c(c(C(=O)/C=C/c4ccccc4)c2O)OC(C)(C)C=C3)c1O [rottlerin] |  |  | ~80 | essentially blocked | did not inhibit | synergized | selectively blocked | inhibits PKCθ function | considerably more effective than Gö6976 |
